Data taken from ChEMBL document CHEMBL1201862, “PubChem BioAssay data set” (2004).
Active and inactive are the calls of the source. Rule as the data show it, for most assays here: actives have a measured IC50 and inactives only a lower limit.

How the values were obtained:
HEK293 [1] = assay: optical interference in Abeta FP readout, dose response, artefact control for IDE activator project, biochemical, fluorescence polarization (AID 588442); type: functional, cell-based; details: Homo sapiens
HEK293 [2] = assay: membrane integrity loss in HEK cells – cell-based, fluorescence, cytotoxicity control for IDE activator project, dose response (AID 588440); type: functional; details: Homo sapiens;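 also: cytotoxicity by LDH release measuring loss of membrane integrity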
Insulin-degrading enzyme [3] = molecular target: T1, Insulin-degrading enzyme (Homo sapiens, UniProt P14735); assay: cellular IDE activation of Abeta substrate cleavage – fluorescence polarization, HEK cells, dose response (AID 588439); type: functional, cell-based
T1 sequence (P14735 whole entry): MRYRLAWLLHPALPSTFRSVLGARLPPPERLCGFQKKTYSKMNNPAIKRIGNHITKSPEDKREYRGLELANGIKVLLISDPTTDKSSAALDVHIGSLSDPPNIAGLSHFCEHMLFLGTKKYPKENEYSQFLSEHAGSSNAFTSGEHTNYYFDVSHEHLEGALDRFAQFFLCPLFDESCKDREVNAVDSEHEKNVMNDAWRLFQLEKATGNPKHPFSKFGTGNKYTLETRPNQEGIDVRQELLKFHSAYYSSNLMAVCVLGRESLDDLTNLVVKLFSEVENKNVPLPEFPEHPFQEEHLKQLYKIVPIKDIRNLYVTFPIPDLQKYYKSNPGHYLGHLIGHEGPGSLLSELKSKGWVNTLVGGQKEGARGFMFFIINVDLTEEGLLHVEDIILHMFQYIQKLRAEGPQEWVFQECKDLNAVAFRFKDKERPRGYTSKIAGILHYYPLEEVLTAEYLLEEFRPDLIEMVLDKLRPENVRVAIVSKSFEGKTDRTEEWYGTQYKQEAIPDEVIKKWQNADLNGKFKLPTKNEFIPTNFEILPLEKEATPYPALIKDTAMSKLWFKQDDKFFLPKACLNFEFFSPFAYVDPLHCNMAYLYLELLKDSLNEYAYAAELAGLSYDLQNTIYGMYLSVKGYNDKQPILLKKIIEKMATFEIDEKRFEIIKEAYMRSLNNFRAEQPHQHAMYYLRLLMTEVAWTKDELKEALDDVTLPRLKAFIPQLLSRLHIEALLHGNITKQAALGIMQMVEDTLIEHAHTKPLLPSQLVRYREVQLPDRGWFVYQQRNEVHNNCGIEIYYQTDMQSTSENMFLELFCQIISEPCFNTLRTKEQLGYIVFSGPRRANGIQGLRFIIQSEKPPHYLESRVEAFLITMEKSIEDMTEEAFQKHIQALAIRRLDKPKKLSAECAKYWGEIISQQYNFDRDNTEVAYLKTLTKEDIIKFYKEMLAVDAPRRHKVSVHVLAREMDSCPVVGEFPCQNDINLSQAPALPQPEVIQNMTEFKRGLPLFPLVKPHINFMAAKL

Insulin-degrading enzyme [4] = molecular target: T1, Insulin-degrading enzyme; assay: recombinant IDE activation, cell-free – biochemical, fluorescence polarization, counter-screen for IDE activator project, dose response (AID 588681)
[5] = molecular target: T2, Sentrin-specific protease 8 (Homo sapiens, UniProt Q96LD8); assay: inhibition of human SENP8 cleavage activity – biochemical, luminescence, SAR follow-up (AID 504501); type: functional
T2 sequence (Q96LD8 whole entry): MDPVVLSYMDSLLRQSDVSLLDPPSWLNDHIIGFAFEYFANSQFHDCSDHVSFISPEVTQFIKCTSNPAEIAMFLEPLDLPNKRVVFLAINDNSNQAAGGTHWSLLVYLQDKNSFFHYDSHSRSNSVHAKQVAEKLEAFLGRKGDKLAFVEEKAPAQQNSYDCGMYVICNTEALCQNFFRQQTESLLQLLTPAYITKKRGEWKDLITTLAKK

[6] = molecular target: T3, Sentrin-specific protease 6 (Homo sapiens, UniProt Q9GZR1); assay: SAR Analysis of small molecule inhibitors of Sentrin-specific protease 6 (SENP6) using a Luminescent assay. [Related pubchem assays (depositor defined):AID2582, AID2599]; type: functional
T3 sequence (Q9GZR1 whole entry): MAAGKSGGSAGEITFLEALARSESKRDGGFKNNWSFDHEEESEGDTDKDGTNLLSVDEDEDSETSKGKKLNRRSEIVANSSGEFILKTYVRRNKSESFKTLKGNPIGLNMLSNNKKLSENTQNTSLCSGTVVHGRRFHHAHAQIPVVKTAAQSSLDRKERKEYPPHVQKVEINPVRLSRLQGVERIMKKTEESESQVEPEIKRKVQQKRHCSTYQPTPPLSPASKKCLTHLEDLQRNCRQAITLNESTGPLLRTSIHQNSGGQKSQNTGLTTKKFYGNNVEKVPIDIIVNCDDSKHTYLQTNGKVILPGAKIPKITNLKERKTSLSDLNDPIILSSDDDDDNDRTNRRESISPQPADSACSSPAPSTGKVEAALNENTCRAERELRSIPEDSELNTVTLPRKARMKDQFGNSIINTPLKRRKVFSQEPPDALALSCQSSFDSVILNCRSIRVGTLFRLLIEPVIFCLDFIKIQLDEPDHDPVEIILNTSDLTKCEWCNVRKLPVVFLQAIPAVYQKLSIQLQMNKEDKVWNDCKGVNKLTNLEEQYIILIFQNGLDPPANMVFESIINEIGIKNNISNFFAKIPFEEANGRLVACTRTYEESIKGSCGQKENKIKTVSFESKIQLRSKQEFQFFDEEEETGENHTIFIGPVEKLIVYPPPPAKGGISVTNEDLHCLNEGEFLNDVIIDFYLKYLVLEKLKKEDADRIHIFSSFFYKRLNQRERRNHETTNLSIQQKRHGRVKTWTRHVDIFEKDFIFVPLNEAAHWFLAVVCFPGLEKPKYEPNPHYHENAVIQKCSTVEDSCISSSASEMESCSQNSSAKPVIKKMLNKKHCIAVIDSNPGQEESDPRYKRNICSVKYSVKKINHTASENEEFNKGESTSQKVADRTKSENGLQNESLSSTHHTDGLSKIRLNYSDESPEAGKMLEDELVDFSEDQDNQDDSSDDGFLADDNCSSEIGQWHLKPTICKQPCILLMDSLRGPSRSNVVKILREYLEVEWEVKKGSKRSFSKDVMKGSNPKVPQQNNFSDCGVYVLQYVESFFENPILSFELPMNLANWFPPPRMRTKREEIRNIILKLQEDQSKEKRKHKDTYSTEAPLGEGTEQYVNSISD

Caspase-3 [7] = molecular target: T4, Caspase-3 (Homo sapiens, UniProt P42574); assay: SAR Analysis of small molecule inhibitors of Sentrin-specific proteases (SENPs) using a Caspase-3 Selectivity assay. [Related pubchem assays (depositor defined):AID2540, AID2599, AID434973, AID489001]; type: functional
T4 sequence (P42574 whole entry): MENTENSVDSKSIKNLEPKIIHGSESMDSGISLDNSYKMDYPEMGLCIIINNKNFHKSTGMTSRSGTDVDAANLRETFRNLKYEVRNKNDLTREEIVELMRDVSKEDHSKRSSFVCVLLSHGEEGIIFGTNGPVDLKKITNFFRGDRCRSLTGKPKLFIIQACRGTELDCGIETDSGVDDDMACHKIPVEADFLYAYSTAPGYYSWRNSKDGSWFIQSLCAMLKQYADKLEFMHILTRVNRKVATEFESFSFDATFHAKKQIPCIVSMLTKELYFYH

[8] = molecular target: T5, Sentrin-specific protease 7 (Homo sapiens, UniProt Q9BQF6); assay: inhibition of human SENP7 cleavage activity – biochemical, luminescence, SAR follow-up (AID 504497); type: functional
T5 sequence (Q9BQF6 whole entry): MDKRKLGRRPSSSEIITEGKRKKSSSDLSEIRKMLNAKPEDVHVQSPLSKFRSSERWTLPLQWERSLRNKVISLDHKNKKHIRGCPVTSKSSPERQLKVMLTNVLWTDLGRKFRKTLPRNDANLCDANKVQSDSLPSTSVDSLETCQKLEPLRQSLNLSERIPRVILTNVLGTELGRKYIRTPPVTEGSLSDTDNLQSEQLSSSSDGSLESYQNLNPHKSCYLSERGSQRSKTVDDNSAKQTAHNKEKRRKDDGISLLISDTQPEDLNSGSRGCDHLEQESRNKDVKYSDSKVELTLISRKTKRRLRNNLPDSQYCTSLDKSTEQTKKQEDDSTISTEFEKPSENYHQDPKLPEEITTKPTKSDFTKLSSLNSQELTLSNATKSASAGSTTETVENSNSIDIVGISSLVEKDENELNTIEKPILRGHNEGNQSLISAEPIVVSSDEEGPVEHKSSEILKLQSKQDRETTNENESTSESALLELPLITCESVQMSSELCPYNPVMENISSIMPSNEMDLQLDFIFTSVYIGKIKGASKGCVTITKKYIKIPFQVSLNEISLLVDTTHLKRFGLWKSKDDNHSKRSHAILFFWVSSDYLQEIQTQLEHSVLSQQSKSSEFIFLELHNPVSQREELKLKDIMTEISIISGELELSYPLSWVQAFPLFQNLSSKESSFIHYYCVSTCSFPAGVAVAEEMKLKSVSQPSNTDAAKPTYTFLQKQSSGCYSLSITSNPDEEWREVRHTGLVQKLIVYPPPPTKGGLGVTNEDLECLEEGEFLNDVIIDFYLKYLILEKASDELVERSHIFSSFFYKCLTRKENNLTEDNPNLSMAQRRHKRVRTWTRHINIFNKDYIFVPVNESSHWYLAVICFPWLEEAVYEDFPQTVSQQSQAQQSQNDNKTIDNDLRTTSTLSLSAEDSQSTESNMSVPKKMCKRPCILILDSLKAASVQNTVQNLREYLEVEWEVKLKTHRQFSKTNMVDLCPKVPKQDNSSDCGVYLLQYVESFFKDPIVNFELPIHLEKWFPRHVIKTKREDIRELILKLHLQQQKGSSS

[9] = molecular target: T5, Sentrin-specific protease 7; type: functional
[10] = molecular target: T2, Sentrin-specific protease 8; type: functional
[11] = molecular target: T6, Heat shock factor protein 1 (Mus musculus, UniProt P38532); assay: decrease of HSF1-responsive luciferase luminescence – cell-based, NIH3T3, dose retest, confirmation (AID 2382); type: functional;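 also: NIH3T3 fibroblasts with HSF1-driven luciferase reporter stressed by proteasome inhibitor MG132; luminescence from HSF1-driven luciferase expression after 8 hours of MG132 stress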
T6 sequence (P38532 whole entry): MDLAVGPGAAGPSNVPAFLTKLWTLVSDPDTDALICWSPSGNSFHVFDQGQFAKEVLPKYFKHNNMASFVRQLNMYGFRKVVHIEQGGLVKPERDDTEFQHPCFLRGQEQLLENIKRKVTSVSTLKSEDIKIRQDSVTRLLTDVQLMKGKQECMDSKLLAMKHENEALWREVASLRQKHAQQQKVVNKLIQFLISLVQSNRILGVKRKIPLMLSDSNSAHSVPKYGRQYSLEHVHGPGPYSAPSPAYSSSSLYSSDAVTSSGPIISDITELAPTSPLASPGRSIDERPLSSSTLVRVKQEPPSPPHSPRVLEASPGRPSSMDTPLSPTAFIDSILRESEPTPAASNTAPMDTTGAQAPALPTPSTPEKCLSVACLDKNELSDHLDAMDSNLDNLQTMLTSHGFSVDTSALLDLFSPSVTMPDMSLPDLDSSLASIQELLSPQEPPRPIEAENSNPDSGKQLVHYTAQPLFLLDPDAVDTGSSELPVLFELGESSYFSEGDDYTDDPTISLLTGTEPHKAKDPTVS

HT-1080 = assay: HT1080 cell viability loss – fluorescence readout (AID 620); type: functional, cell-based; details: Homo sapiens
[12] = molecular target: T3, Sentrin-specific protease 6; type: functional
[13] = molecular target: Luciferin 4-monooxygenase (Photinus pyralis, UniProt P08659); assay: Counter Screen for Luciferase-based Assay Positives. [Related pubchem assays: 620, 618, 411 ]
Caspase-3 [14] = molecular target: T4, Caspase-3; type: functional

Sequence of Luciferin 4-monooxygenase (P08659 whole entry): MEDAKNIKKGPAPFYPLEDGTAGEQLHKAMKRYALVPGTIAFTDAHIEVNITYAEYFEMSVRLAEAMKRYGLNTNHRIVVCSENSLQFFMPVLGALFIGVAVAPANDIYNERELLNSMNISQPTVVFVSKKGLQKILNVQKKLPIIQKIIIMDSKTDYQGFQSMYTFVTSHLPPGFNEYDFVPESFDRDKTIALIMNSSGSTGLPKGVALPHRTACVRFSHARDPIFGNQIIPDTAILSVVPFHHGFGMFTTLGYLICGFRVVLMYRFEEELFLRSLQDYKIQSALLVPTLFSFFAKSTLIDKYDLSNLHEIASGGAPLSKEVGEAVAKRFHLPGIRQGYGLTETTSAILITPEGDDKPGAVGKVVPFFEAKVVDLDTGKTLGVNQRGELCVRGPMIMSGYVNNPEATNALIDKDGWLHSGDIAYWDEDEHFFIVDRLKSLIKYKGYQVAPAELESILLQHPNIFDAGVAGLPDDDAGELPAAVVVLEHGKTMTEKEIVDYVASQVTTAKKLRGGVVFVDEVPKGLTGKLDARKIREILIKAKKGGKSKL

SMILES	EC50 (HEK293 [1])	IC50 (HEK293 [2])	EC50 (Insulin-degrading enzyme [3])	EC50 (Insulin-degrading enzyme [4])	IC50 [5]	IC50 [6]	IC50 (Caspase-3 [7])	IC50 [8]	IC50 [9]	IC50 [10]	EC50 [11]	EC50 (HT-1080)	IC50 [12]	EC50 [13]	IC50 (Caspase-3 [14])
Cc1ccc2nc(N(CCCN(C)C)C(=O)COc3ccc(Cl)cc3)sc2c1	> 54.7 µM (inactive)	46.4 µM (inactive)	> 54.7 µM (inactive)	> 54.7 µM (inactive)	–	–	–	–	–	–	–	–	–	–	–
N#Cc1ccc(-c2nc(/C=C/c3ccc(F)cc3)no2)cc1	–	–	–	–	> 99 µM (inactive)	> 99 µM (inactive)	> 99 µM (inactive)	> 99 µM (inactive)	–	–	–	–	–	–	–
CC(=O)N(/N=C1\Sc2ccccc2C1=O)c1ccc(C)cc1C	–	–	–	–	13 µM (active)	5.49 µM (active)	7.42 µM (active)	23.3 µM (active)	21.5 µM (active)	86.8 µM (active)	< 0.16 µM (active)	> 50 µM (not active)	7.1 µM (active)	< 0.2 µM (active)	33 µM (active)
